From ChEMBL document CHEMBL1128011, “Discovery of nonpeptide potent conformationally restricted angiotensin II receptor antagonists” (Bioorg Med Chem Lett, 1994) come the findings set out here.

For the first assay, the target named is T1, Type-1 angiotensin II receptor B (Rattus norvegicus, UniProt P29089).
T1 sequence (P29089 whole entry): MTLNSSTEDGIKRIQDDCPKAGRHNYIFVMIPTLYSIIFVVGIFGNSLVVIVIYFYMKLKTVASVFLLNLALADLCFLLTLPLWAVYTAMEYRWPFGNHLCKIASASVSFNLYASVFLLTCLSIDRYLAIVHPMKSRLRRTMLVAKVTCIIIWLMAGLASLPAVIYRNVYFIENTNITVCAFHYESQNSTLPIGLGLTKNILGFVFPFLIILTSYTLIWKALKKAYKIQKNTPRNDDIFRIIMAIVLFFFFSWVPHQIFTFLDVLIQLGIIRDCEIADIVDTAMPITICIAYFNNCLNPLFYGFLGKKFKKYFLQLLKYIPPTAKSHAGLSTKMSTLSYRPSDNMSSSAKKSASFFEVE
The experiment in a line: Inhibition of [125-I]-labeled angiotensin II binding to AT1 receptor in rat uterine membranes. The class given is cell membranes, Membrane.
Details: not given
In general, IC50 refers to the point on the concentration scale where inhibition reaches its midpoint. Low readings indicate inhibition by little substance, high ones a need for much substance. In the case of `CCCCc1ncc2n1[C@H](c1ccc(-c3ccccc3-c3nnn(C(c4ccccc4)(c4ccccc4)c4ccccc4)n3)cc1)CC[C@@H]2N1C(=O)CCC1=O`, the IC50 is more than 10000 nM.

Molecule `CCCCc1ncc2n1C(c1ccc(-c3ccccc3-c3nnn[nH]3)cc1)CC=C2` (stereo not given) gave an IC50 of 120 nM.

`CCCCn1nc2n(c1=O)C(c1ccc(-c3ccccc3-c3nnn(C(c4ccccc4)(c4ccccc4)c4ccccc4)n3)cc1)CCC2CCC` (stereo not given) showed an IC50 of more than 10000 nM.

Molecule `CCCCn1nc2n(c1=O)C(c1ccc(-c3ccccc3-c3nn[nH]n3)cc1)CCC2` (stereo not given) displayed an IC50 of more than 10000 nM.

`CCCCc1ncc2n1[C@H](c1ccc(-c3ccccc3-c3nnn(C(c4ccccc4)(c4ccccc4)c4ccccc4)n3)cc1)C[C@@H](Br)[C@@H]2N1C(=O)CCC1=O` showed an IC50 of more than 10000 nM.

As to `CCCCc1nc(Cl)c2n1[C@H](c1ccc(-c3ccccc3-c3nn[nH]n3)cc1)CC[C@@H]2N1C(=O)CCC1=O`, the IC50 turned out to be 11 nM.

`CCCCc1ncc2n1[C@H](c1ccc(-c3ccccc3-c3nn[nH]n3)cc1)CC[C@@H]2N1C(=O)CCC1=O`: the IC50 stood at 15 nM. The IC50 values of the last two molecules are within 1.5-fold of each other.

Molecule `CCCCc1cn(Cc2ccc(-c3ccccc3-c3nnn(C(c4ccccc4)(c4ccccc4)c4ccccc4)n3)cc2)c(CCCC)n1` registered an IC50 of more than 10000 nM.

Molecule `CCCCc1cn(Cc2ccc(-c3ccccc3-c3nnn[nH]3)cc2)c(CCCC)n1` gave an IC50 of 63 nM.

In the case of `CCCCc1nc(CCCC)n2c1C=CCC2c1ccc(-c2ccccc2-c2nn[nH]n2)cc1` (stereo not given), the IC50 came to 190 nM.

The species entered for another assay is Oryctolagus cuniculus. In words: Compound was tested in vitro for its ability to antagonize the AII-mediated contraction of rabbit aortic rings.
Details: not given
The class given is functional, Aorta.
The pA2 is a measure of antagonist potency on a negative log scale. In the case of `CCCCc1ncc2n1[C@H](c1ccc(-c3ccccc3-c3nn[nH]n3)cc1)CC[C@@H]2N1C(=O)CCC1=O`, the pA2 was determined as 8.6.

Staying with this assay, now noted: Oryctolagus cuniculus, Aorta; read-out: pA2 (converted).
On to `CCCCc1nc(Cl)c2n1[C@H](c1ccc(-c3ccccc3-c3nn[nH]n3)cc1)CC[C@@H]2N1C(=O)CCC1=O`, for which the Kb is 1.58 nM.

For a further assay, the target named is T1, Type-1 angiotensin II receptor B. In words: Displacement of [125-I]-labeled angiotensin II from Angiotensin II receptor, type 1 of rat uterine membranes. Format: cell membranes, Membrane.
Details: not given
`CCCCc1ncc2n1C(c1ccc(-c3ccccc3-c3nnn[nH]3)cc1)CC=C2` (stereo not given) returned an IC50 of more than 10000 nM.

Regarding `CCCCn1nc(C(CCC)CCO)n(Cc2ccc(-c3ccccc3-c3nnn(C(c4ccccc4)(c4ccccc4)c4ccccc4)n3)cc2)c1=O` (stereo not given), the IC50 was more than 10000 nM.

`CCCCn1nc2n(c1=O)C(c1ccc(-c3ccccc3-c3nnn(C(c4ccccc4)(c4ccccc4)c4ccccc4)n3)cc1)CCC2CCC` (stereo not given) gave an IC50 of more than 10000 nM.

`CCCCn1nc(C(CCC)CC2=NC(C)(C)CO2)n(Cc2ccc(-c3ccccc3-c3nnn(C(c4ccccc4)(c4ccccc4)c4ccccc4)n3)cc2)c1=O` (stereo not given) yielded an IC50 of more than 10000 nM.

Molecule `CCCCN1N=C(CCC)/C(=C/c2ccc(-c3ccccc3-c3nn[nH]n3)cc2)C1=O` gave an IC50 of 45000 nM.

Molecule `CCCCN1N=C(CCC)C(Cc2ccc(-c3ccccc3-c3nn[nH]n3)cc2)C1=O` (stereo not given) gave an IC50 of 500 nM.

Molecule `CCCCn1nc(C(Br)CCC)n(Cc2ccc(-c3ccccc3-c3nnn(C(c4ccccc4)(c4ccccc4)c4ccccc4)n3)cc2)c1=O` (stereo not given) displayed an IC50 of more than 10000 nM.

As for `CCCC1CCC(c2ccc(-c3ccccc3-c3nnn[nH]3)cc2)n2c1n[nH]c2=O` (stereo not given), the IC50 is more than 10000 nM.

Turning to `CCCCc1nn(CCCC)c(=O)n1Cc1ccc(-c2ccccc2-c2nnn[nH]2)cc1`, the IC50 was 5 nM. That is a single-digit nanomolar value.

As for `CCCCc1nn(CCCC)c(=O)n1Cc1ccc(-c2ccccc2-c2nnn(C(c3ccccc3)(c3ccccc3)c3ccccc3)n2)cc1`, the IC50 was more than 10000 nM.

On to `CCCCn1nc(C(CCC)CCBr)n(Cc2ccc(-c3ccccc3-c3nnn(C(c4ccccc4)(c4ccccc4)c4ccccc4)n3)cc2)c1=O` (stereo not given), for which the IC50 was more than 10000 nM.

`CCCCn1nc2n(c1=O)C(c1ccc(-c3ccccc3-c3nn[nH]n3)cc1)CCC2CCC` (stereo in doubt; 12) gave an IC50 of 1800 nM.

On to `CCCCn1nc2n(c1=O)C(c1ccc(-c3ccccc3-c3nn[nH]n3)cc1)CCC2CCC` (stereo in doubt; 13), for which the IC50 amounted to 1600 nM.
